We go through one cell line from the supplement of paper PMC10307832.

What all share (test): relative viability (nuclei count vs DMSO), 5 days (fraction); higher = more cells survive
Compound in test [1]: C1/C(=C\C2=CC=CS2)/C(=O)/C(=C/C3=CC=CS3)/C1 + C[C@@H](Oc1cc(-c2cnn(C3CCNCC3)c2)cnc1N)c1c(Cl)ccc(F)c1Cl [Crizotinib] (partner 1 µM)
An outline of the steps: (§1)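 Values are medians from duplicate plates. Each reflects relative viability, defined as the nuclei count of treated wells over that of vehicle wells. Lung cancer cell lines in 1536-well plates were pin-tool dosed one day after seeding with one drug alone or with a fixed anchor-drug dose plus five library-drug doses (not always all listed) in √10 steps, then fixed, stained and imaged at 4× after 5 days.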

Compound in the test “TPCA-1 + OSI-027”: C1=CC(=CC=C1C2=CC(=C(S2)NC(=O)N)C(=O)N)F [TPCA-1] + COc1cccc2cc(-c3nc([C@H]4CC[C@H](C(=O)O)CC4)n4ncnc(N)c34)[nH]c12 [OSI-027] (partner 0.5 µM)
In short, it runs like this: as §1

Compound in the test “TPCA-1 + Olaparib”: C1=CC(=CC=C1C2=CC(=C(S2)NC(=O)N)C(=O)N)F [TPCA-1] + O=C(c1cc(Cc2n[nH]c(=O)c3ccccc23)ccc1F)N1CCN(C(=O)C2CC2)CC1 [Olaparib] (partner 8 µM)
In short, it runs like this: as §1

Compound in test [2]: C1/C(=C\C2=CC=CS2)/C(=O)/C(=C/C3=CC=CS3)/C1 + CC(=O)c1c(C)c2cnc(Nc3ccc(N4CCNCC4)cn3)nc2n(C2CCCC2)c1=O [Palbociclib] (partner 0.5 µM)
In short, it runs like this:
as §1

For UMC-11, the relative viability amounted to 0.62 in test [1] (first compound 0.2 µM); 0.685 in test [1] (first compound 0.6325 µM); 0.687 in test [1] (first compound 2 µM); 0.571 in test [1] (first compound 20 µM); 0.536 with TPCA-1 + OSI-027 (first compound 0.04 µM); 0.337 with TPCA-1 + OSI-027 (first compound 0.1265 µM). In addition, the relative viability in the test with TPCA-1 + OSI-027 (first compound 0.4 µM) turned out to be 0.466; with TPCA-1 + OSI-027 (first compound 1.265 µM), 0.4; in the test with TPCA-1 + OSI-027 (first compound 4 µM) it was 0.234; with TPCA-1 + Olaparib (first compound 0.04 µM) it was 0.365; with TPCA-1 + Olaparib (first compound 0.1265 µM), 0.455; with TPCA-1 + Olaparib (first compound 0.4 µM) it was 0.405. Moreover, the relative viability with TPCA-1 + Olaparib (first compound 1.265 µM) stood at 0.381; with TPCA-1 + Olaparib (first compound 4 µM), 0.42; in test [2] (first compound 0.2 µM) it was 0.308; in test [2] (first compound 0.6325 µM) it was 0.367; in test [2] (first compound 2 µM), 0.322; in test [2] (first compound 6.325 µM) it was 0.334. In test [2] (first compound 20 µM), the relative viability was found to be 0.338.
